Values quoted from earlier work, collected in patent US7491718B2, “Sulfonamides having antiangiogenic and anticancer activity” (Abbott Laboratories, priority 2002, dated 2009).

Target: type 2-methionine aminopeptidase (MetAP-2) (Homo sapiens, UniProt P50579)
Details: reported in Proc. Natl. Acad. Sci. USA 94: 6099-6103 (1997) and Chemistry and Biology, 4(6): 461-471 (1997)

type 2-methionine aminopeptidase (MetAP-2), sequence (P50579 whole entry, species assumed): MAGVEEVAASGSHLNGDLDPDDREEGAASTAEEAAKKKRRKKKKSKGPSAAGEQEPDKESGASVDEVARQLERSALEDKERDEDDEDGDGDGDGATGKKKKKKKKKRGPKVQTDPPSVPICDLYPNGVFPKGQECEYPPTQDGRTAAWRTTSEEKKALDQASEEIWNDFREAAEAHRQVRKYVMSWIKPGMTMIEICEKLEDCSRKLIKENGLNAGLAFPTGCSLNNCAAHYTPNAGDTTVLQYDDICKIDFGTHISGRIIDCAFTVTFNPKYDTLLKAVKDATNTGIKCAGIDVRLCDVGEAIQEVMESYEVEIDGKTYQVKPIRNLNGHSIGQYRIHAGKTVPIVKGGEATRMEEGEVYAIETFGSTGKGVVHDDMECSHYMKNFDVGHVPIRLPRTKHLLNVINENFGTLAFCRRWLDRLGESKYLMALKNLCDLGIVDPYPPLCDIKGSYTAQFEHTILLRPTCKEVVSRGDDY

CO[C@@H]1[C@H](OC(=O)NC(=O)CCl)CC[C@]2(CO2)[C@H]1[C@@]1(C)O[C@@H]1CC=C(C)C [AGM-1470]
binding to MetAP-2: bind
